# In patent publication US20240358692A1, “TREATMENT OF SCLERODERMA” (Aisa Pharma, Inc., priority 2023, published 2024):
# Test system: participants with SSc-RP
# Experiment: Average severity of weekly RP attacks (VAS 0-10)
# Assay type: in vivo, human
# Settings: for Average Severity (0-10) of weekly RP attacks, Median / Average severity of weekly RP attacks, Change from Baseline, Mean / Average severity of weekly RP attacks, Change from Baseline, Median / Average severity of weekly RP attacks, Percent Change from Baseline, Mean / Average severity of weekly RP attacks, Percent Change from Baseline, Median / Average Severity (0-10) of weekly RP attacks, Mean: all attacks
# From the text: The absolute change in average severity of weekly RP attacks (VAS 0-10 cm scale) from baseline to the end of each Dosing Period was and will be a secondary outcome variable. The sponsor-developed participant-informed diary will be used to record data. Average severity of weekly RP attacks is defined as the total severity scores of RP attacks divided by total number of RP attacks within the last 7 days of each dosing period. Total severity scores of RP attacks during the last 7 days of screening period divided by the total number of RP attacks will be used as baseline for the analysis of all periods. The variable will be calculated similar to frequency data as before.
# [1] = Cilnidipine 10 mg, 1st Baseline RCS subgroup, ITT Part A, last 7 days of dosing period
# [2] = Cilnidipine 10 mg, Excluding Outliers, 1st Baseline RCS subgroup, ITT Part A, last 7 days of dosing period
# [3] = Cilnidipine 10 mg, ITT Part A, last 7 days of dosing period
# [4] = Cilnidipine 10 mg, Excluding Outliers, ITT Part A
# [5] = Cilnidipine 10 mg, Excluding Outliers, by Baseline RCS: first subgroup of Table C-8, ITT Part A
# [6] = Cilnidipine 10 mg, by Baseline RCS: first subgroup of Table C-7, ITT Part A
# [7] = Cilnidipine 10 mg, excluding outliers, ITT Part A
# [8] = Cilnidipine 10 mg, excluding outliers, severity 0-10, ITT Part A
# [9] = Cilnidipine 10 mg, severity 0-10, ITT Part A
# [10] = Cilnidipine 20 mg, 1st Baseline RCS subgroup, ITT Part A, last 7 days of dosing period
# [11] = Cilnidipine 20 mg, Excluding Outliers, 1st Baseline RCS subgroup, ITT Part A, last 7 days of dosing period
# [12] = Cilnidipine 20 mg, ITT Part A, last 7 days of dosing period
# [13] = Cilnidipine 20 mg, Excluding Outliers, ITT Part A
# [14] = Cilnidipine 20 mg, Excluding Outliers, by Baseline RCS: first subgroup of Table C-8, ITT Part A
# [15] = Cilnidipine 20 mg, by Baseline RCS: first subgroup of Table C-7, ITT Part A
# [16] = Cilnidipine 20 mg, excluding outliers, ITT Part A
# [17] = Cilnidipine 20 mg, excluding outliers, severity 0-10, ITT Part A
# [18] = Cilnidipine 20 mg, severity 0-10, ITT Part A
# [19] = Pooled Cilnidipine 10 mg and Cilnidipine 10 mg + Tadalafil 5 mg, 1st Baseline RCS subgroup, ITT Part A, last 7 days of dosing period
# [20] = Pooled Cilnidipine 10 mg and Cilnidipine 10 mg + Tadalafil 5 mg, 2nd Baseline RCS subgroup, ITT Part A, last 7 days of dosing period
smiles,measurement,setting,value
COCCOC(=O)C1=C(C)NC(C)=C(C(=O)OC/C=C/c2ccccc2)C1c1cccc([N+](=O)[O-])c1 (stereo not shown) [Cilnidipine],"Average Severity of Weekly Symptomatic RP Attacks, Change from Baseline, Mean",[1],0.28
same,"Average Severity of Weekly Symptomatic RP Attacks, Change from Baseline, Median",[1],0.28
same,"Average Severity of Weekly Symptomatic RP Attacks, Mean",[1],3.77
same,"Average Severity of Weekly Symptomatic RP Attacks, Median",[1],3.77
same,"Average Severity of Weekly Symptomatic RP Attacks, Percent Change from Baseline, Mean",[1],8.05%
same,"Average Severity of Weekly Symptomatic RP Attacks, Percent Change from Baseline, Median",[1],8.05%
same,"Average Severity of Weekly Symptomatic RP Attacks, Change from Baseline, Mean",[2],0.28
same,"Average Severity of Weekly Symptomatic RP Attacks, Change from Baseline, Median",[2],0.28
same,"Average Severity of Weekly Symptomatic RP Attacks, Mean",[2],3.77
same,"Average Severity of Weekly Symptomatic RP Attacks, Median",[2],3.77
same,"Average Severity of Weekly Symptomatic RP Attacks, Percent Change from Baseline, Mean",[2],8.05%
same,"Average Severity of Weekly Symptomatic RP Attacks, Percent Change from Baseline, Median",[2],8.05%
same,"Average Severity of Weekly Symptomatic RP Attacks, Percent Change from Baseline, Mean","Cilnidipine 10 mg, ITT Part A",8.05%
same,"Average Severity of Weekly Symptomatic RP Attacks, Percent Change from Baseline, Median","Cilnidipine 10 mg, ITT Part A",8.05%
same,"Average Severity of Weekly RP Attacks (All Attacks), Change from Baseline, Mean",[3],0.02
same,"Average Severity of Weekly RP Attacks (All Attacks), Change from Baseline, Median",[3],0.02
same,"Average Severity of Weekly RP Attacks (All Attacks), Mean",[3],3.05
same,"Average Severity of Weekly RP Attacks (All Attacks), Median",[3],3.05
same,"Average Severity of Weekly RP Attacks (All Attacks), Percent Change from Baseline, Mean",[3],0.55%
same,"Average Severity of Weekly RP Attacks (All Attacks), Percent Change from Baseline, Median",[3],0.55%
same,"Average Severity (0-10) of weekly RP attacks, Median",[4],3.05
same,"Average severity of weekly RP attacks, Change from Baseline, Mean",[4],0.02
same,"Average severity of weekly RP attacks, Change from Baseline, Median",[4],0.02
same,"Average severity of weekly RP attacks, Percent Change from Baseline, Mean",[4],0.55%
same,"Average severity of weekly RP attacks, Percent Change from Baseline, Median",[4],0.55%
same,"Average Severity (0-10) of weekly RP attacks, Mean",[5],3.05
same,"Average Severity (0-10) of weekly RP attacks, Median",[5],3.05
same,"Average severity of weekly RP attacks, Change from Baseline, Mean",[5],0.02
same,"Average severity of weekly RP attacks, Change from Baseline, Median",[5],0.02
same,"Average severity of weekly RP attacks, Percent Change from Baseline, Mean",[5],0.55%
same,"Average severity of weekly RP attacks, Percent Change from Baseline, Median",[5],0.55%
same,"Average Severity (0-10) of weekly RP attacks, Mean",[6],3.05
same,"Average Severity (0-10) of weekly RP attacks, Median",[6],3.05
same,"Average severity of weekly RP attacks, Change from Baseline, Mean",[6],0.02
same,"Average severity of weekly RP attacks, Change from Baseline, Median",[6],0.02
same,"Average severity of weekly RP attacks, Percent Change from Baseline, Mean",[6],0.55%
same,"Average severity of weekly RP attacks, Percent Change from Baseline, Median",[6],0.55%
same,"Average Severity of Weekly Symptomatic RP Attacks, Percent Change from Baseline, Mean",[7],8.05%
same,"Average Severity of Weekly Symptomatic RP Attacks, Percent Change from Baseline, Median",[7],8.05%
same,"Average Severity of Weekly Symptomatic RP Attacks, Change from Baseline, Mean",[8],0.28
same,"Average Severity of Weekly Symptomatic RP Attacks, Change from Baseline, Median",[8],0.28
same,"Average Severity of Weekly Symptomatic RP Attacks, Mean",[8],3.77
same,"Average Severity of Weekly Symptomatic RP Attacks, Median",[8],3.77
same,"Average Severity of Weekly Symptomatic RP Attacks, Change from Baseline, Mean",[9],0.28
same,"Average Severity of Weekly Symptomatic RP Attacks, Change from Baseline, Median",[9],0.28
same,"Average Severity of Weekly Symptomatic RP Attacks, Mean",[9],3.77
same,"Average Severity of Weekly Symptomatic RP Attacks, Median",[9],3.77
same,Severity (change),Cilnidipine 20 mg (n = 3),−36%
same,"Average Severity of Weekly Symptomatic RP Attacks, Change from Baseline, Mean",[10],−1.44
same,"Average Severity of Weekly Symptomatic RP Attacks, Change from Baseline, Median",[10],−1.44
same,"Average Severity of Weekly Symptomatic RP Attacks, Mean",[10],2.30
same,"Average Severity of Weekly Symptomatic RP Attacks, Median",[10],2.30
same,"Average Severity of Weekly Symptomatic RP Attacks, Percent Change from Baseline, Mean",[10],−32.85%
same,"Average Severity of Weekly Symptomatic RP Attacks, Percent Change from Baseline, Median",[10],−32.85%
same,"Average Severity of Weekly Symptomatic RP Attacks, Change from Baseline, Mean",[11],−1.44
same,"Average Severity of Weekly Symptomatic RP Attacks, Change from Baseline, Median",[11],−1.44
same,"Average Severity of Weekly Symptomatic RP Attacks, Mean",[11],2.30
same,"Average Severity of Weekly Symptomatic RP Attacks, Median",[11],2.30
same,"Average Severity of Weekly Symptomatic RP Attacks, Percent Change from Baseline, Mean",[11],−32.85%
same,"Average Severity of Weekly Symptomatic RP Attacks, Percent Change from Baseline, Median",[11],−32.85%
same,"Average Severity of Weekly Symptomatic RP Attacks, Percent Change from Baseline, Mean","Cilnidipine 20 mg, ITT Part A",−32.85%
same,"Average Severity of Weekly Symptomatic RP Attacks, Percent Change from Baseline, Median","Cilnidipine 20 mg, ITT Part A",−32.85%
same,"Average Severity of Weekly RP Attacks (All Attacks), Change from Baseline, Mean",[12],−1.07
same,"Average Severity of Weekly RP Attacks (All Attacks), Change from Baseline, Median",[12],−1.07
same,"Average Severity of Weekly RP Attacks (All Attacks), Mean",[12],2.30
same,"Average Severity of Weekly RP Attacks (All Attacks), Median",[12],2.30
same,"Average Severity of Weekly RP Attacks (All Attacks), Percent Change from Baseline, Mean",[12],−27.26%
same,"Average Severity of Weekly RP Attacks (All Attacks), Percent Change from Baseline, Median",[12],−27.26%
same,"Average Severity (0-10) of weekly RP attacks, Mean",[13],2.30
same,"Average Severity (0-10) of weekly RP attacks, Median",[13],2.30
same,"Average severity of weekly RP attacks, Change from Baseline, Mean",[13],−1.07
same,"Average severity of weekly RP attacks, Change from Baseline, Median",[13],−1.07
same,"Average severity of weekly RP attacks, Percent Change from Baseline, Mean",[13],−27.26%
same,"Average severity of weekly RP attacks, Percent Change from Baseline, Median",[13],−27.26%
same,"Average Severity (0-10) of weekly RP attacks, Mean",[14],2.30
same,"Average Severity (0-10) of weekly RP attacks, Median",[14],2.30
same,"Average severity of weekly RP attacks, Change from Baseline, Mean",[14],−1.07
same,"Average severity of weekly RP attacks, Change from Baseline, Median",[14],−1.07
same,"Average severity of weekly RP attacks, Percent Change from Baseline, Mean",[14],−27.26%
same,"Average severity of weekly RP attacks, Percent Change from Baseline, Median",[14],−27.26%
same,"Average Severity (0-10) of weekly RP attacks, Mean",[15],2.30
same,"Average Severity (0-10) of weekly RP attacks, Median",[15],2.30
same,"Average severity of weekly RP attacks, Change from Baseline, Mean",[15],−1.07
same,"Average severity of weekly RP attacks, Change from Baseline, Median",[15],−1.07
same,"Average severity of weekly RP attacks, Percent Change from Baseline, Mean",[15],−27.26%
same,"Average severity of weekly RP attacks, Percent Change from Baseline, Median",[15],−27.26%
same,"Average Severity of Weekly Symptomatic RP Attacks, Percent Change from Baseline, Mean",[16],−32.85%
same,"Average Severity of Weekly Symptomatic RP Attacks, Percent Change from Baseline, Median",[16],−32.85%
same,"Average Severity of Weekly Symptomatic RP Attacks, Change from Baseline, Mean",[17],−1.44
same,"Average Severity of Weekly Symptomatic RP Attacks, Change from Baseline, Median",[17],−1.44
same,"Average Severity of Weekly Symptomatic RP Attacks, Mean",[17],2.30
same,"Average Severity of Weekly Symptomatic RP Attacks, Median",[17],2.30
same,"Average Severity of Weekly Symptomatic RP Attacks, Change from Baseline, Mean",[18],−1.44
same,"Average Severity of Weekly Symptomatic RP Attacks, Change from Baseline, Median",[18],−1.44
same,"Average Severity of Weekly Symptomatic RP Attacks, Mean",[18],2.30
same,"Average Severity of Weekly Symptomatic RP Attacks, Median",[18],2.30
same,"Average Severity of Weekly Symptomatic RP Attacks, Change from Baseline, Mean",[19],−1.22
same,"Average Severity of Weekly Symptomatic RP Attacks, Change from Baseline, Median",[19],−1.22
same,"Average Severity of Weekly Symptomatic RP Attacks, Mean",[19],3.34
same,"Average Severity of Weekly Symptomatic RP Attacks, Median",[19],3.34
same,"Average Severity of Weekly Symptomatic RP Attacks, Percent Change from Baseline, Mean",[19],−20.18%
same,"Average Severity of Weekly Symptomatic RP Attacks, Percent Change from Baseline, Median",[19],−20.18%
same,"Average Severity of Weekly Symptomatic RP Attacks, Change from Baseline, Mean",[20],−1.13
same,"Average Severity of Weekly Symptomatic RP Attacks, Change from Baseline, Median",[20],−1.13
same,"Average Severity of Weekly Symptomatic RP Attacks, Mean",[20],5.23
same,"Average Severity of Weekly Symptomatic RP Attacks, Median",[20],5.23
same,"Average Severity of Weekly Symptomatic RP Attacks, Percent Change from Baseline, Mean",[20],−17.81%
same,"Average Severity of Weekly Symptomatic RP Attacks, Percent Change from Baseline, Median",[20],−17.81%
same,"Average Severity of Weekly Symptomatic RP Attacks, Change from Baseline, Mean","Pooled Cilnidipine 10 mg and Cilnidipine 10 mg + Tadalafil 5 mg, Excluding Outliers, 1st Baseline RCS subgroup, ITT Part A, last 7 days of dosing period",−1.22
